According to the supplement of paper PMC10307832:

Columns and labels:
Assay in all cases: relative viability (nuclei count vs DMSO), 5 days (fraction); higher = more cells survive
Sulindac + Tozasertib = compound: CC1=C(CC(=O)O)c2cc(F)ccc2/C1=C\c1ccc([S+](C)[O-])cc1 [Sulindac] + Cc1cc(Nc2cc(N3CCN(C)CC3)nc(Sc3ccc(NC(=O)C4CC4)cc3)n2)n[nH]1 [Tozasertib] (partner 0.1 µM)
Method in brief: (§1)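 Values are medians from duplicate plates. Each reflects relative viability, defined as the nuclei count of treated wells over that of vehicle wells. Lung cancer cell lines in 1536-well plates were pin-tool dosed one day after seeding with one drug alone or with a fixed anchor-drug dose plus five library-drug doses (not always all listed) in √10 steps, then fixed, stained and imaged at 4× after 5 days.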

Sulindac + Olaparib = compound: CC1=C(CC(=O)O)c2cc(F)ccc2/C1=C\c1ccc([S+](C)[O-])cc1 [Sulindac] + O=C(c1cc(Cc2n[nH]c(=O)c3ccccc23)ccc1F)N1CCN(C(=O)C2CC2)CC1 [Olaparib] (partner 8 µM)
Method in brief: as §1

[1] = compound: CN[C@@H]1C[C@H]2O[C@@](C)([C@@H]1OC)n1c3ccccc3c3c4c(c5c6ccccc6n2c5c31)C(=O)NC4 [Staurosporine] + C[C@]1(O)C[C@@H](c2nc(-c3ccc4ccc(-c5ccccc5)nc4c3)c3c(N)nccn32)C1 [Linsitinib] (partner 1 µM)
Method in brief: as §1

[2] = compound: CN[C@@H]1C[C@H]2O[C@@](C)([C@@H]1OC)n1c3ccccc3c3c4c(c5c6ccccc6n2c5c31)C(=O)NC4 [Staurosporine] + N=C(N)NC(=N)NCCc1ccccc1 [Phenformin] (partner 250 µM)
Method in brief: as §1

| Cell Line | relative viability (Sulindac + Tozasertib; first compound 0.08 µM) | relative viability (Sulindac + Tozasertib; first compound 0.253 µM) | relative viability (Sulindac + Tozasertib; first compound 8 µM) | relative viability (Sulindac + Olaparib; first compound 0.08 µM) | relative viability (Sulindac + Olaparib; first compound 0.253 µM) | relative viability (Sulindac + Olaparib; first compound 0.8 µM) | relative viability (Sulindac + Olaparib; first compound 2.53 µM) | relative viability (Sulindac + Olaparib; first compound 8 µM) | relative viability ([1]; first compound 0.005 µM) | relative viability ([1]; first compound 0.01581 µM) | relative viability ([1]; first compound 0.05 µM) | relative viability ([1]; first compound 0.1581 µM) | relative viability ([1]; first compound 0.5 µM) | relative viability ([2]; first compound 0.005 µM) | relative viability ([2]; first compound 0.1581 µM) | relative viability ([2]; first compound 0.5 µM) | relative viability (Sulindac + Tozasertib; first compound 2.53 µM) | relative viability ([2]; first compound 0.01581 µM) | relative viability ([2]; first compound 0.05 µM) | relative viability (Sulindac + Tozasertib; first compound 0.8 µM) |
| --- | --- | --- | --- | --- | --- | --- | --- | --- | --- | --- | --- | --- | --- | --- | --- | --- | --- | --- | --- | --- |
| LK-2 | 0.186 | 0.178 | 0.189 | 0.766 | 0.998 | 0.514 | 0.592 | 0.808 | 0.698 | 0.506 | 0.753 | 0.473 | 0.154 | 0.676 | 0.127 | 0.126 | – | – | – | – |
| NCI-H1734 | 0.221 | 0.25 | 0.286 | 0.634 | 0.67 | 0.609 | 0.649 | 0.674 | 0.849 | 0.473 | 0.294 | 0.228 | 0.164 | 0.348 | 0.116 | 0.107 | 0.295 | 0.179 | 0.153 | – |
| NCI-H441 | 0.763 | 0.773 | 0.667 | 0.514 | 0.537 | 0.442 | 0.476 | 0.624 | 0.304 | 0.126 | 0.153 | 0.153 | 0.141 | 0.817 | 0.202 | 0.102 | 0.725 | 0.259 | 0.246 | 0.593 |
| NCI-H838 | 0.283 | 0.269 | 0.218 | 0.941 | 0.798 | 0.65 | 0.809 | 0.914 | 0.248 | 0.153 | 0.18 | 0.164 | 0.099 | 0.208 | 0.125 | 0.0931 | 0.248 | 0.139 | 0.136 | 0.253 |
| NCI-H23 | 0.292 | – | 0.535 | 0.32 | 0.319 | 0.367 | 0.258 | 0.282 | 0.419 | 0.234 | 0.213 | 0.219 | 0.155 | 0.763 | 0.174 | 0.161 | 0.354 | – | 0.351 | 0.323 |
| NCI-H1395 | 0.694 | 0.732 | 0.866 | 0.43 | 0.424 | 0.467 | 0.45 | 0.483 | 0.947 | 0.427 | 0.381 | 0.377 | 0.289 | 0.462 | 0.301 | 0.241 | 0.733 | 0.292 | 0.382 | 0.776 |
| NCI-H647 | 0.35 | 0.364 | 0.448 | 0.689 | 0.577 | 0.346 | 0.398 | 0.785 | 0.616 | 0.361 | 0.22 | 0.112 | 0.0579 | 0.236 | 0.0492 | 0.0636 | 0.566 | 0.0676 | 0.0846 | 0.481 |
| NCI-H520 | 0.431 | 0.4 | 0.48 | 0.36 | 0.328 | 0.302 | 0.313 | 0.283 | 1.05 | 0.824 | 0.604 | 0.213 | 0.128 | 0.758 | 0.25 | 0.166 | 0.437 | 0.233 | 0.394 | 0.435 |
